For assay [1], the system named is mechanically loaded dorsal incisional wounds. The experiment in a line: Mechanical loading of dorsal incisional wounds with Verteporfin treatment. It counts as in vivo, mouse. The protocol:
20 mm-long linear wounds were produced on the dorsum of P60 En-1^Cre-ERT;Ai6 mice and then closed with sutures. On POD 4, a loading device (constructed from 22 mm expansion screws and Luhr plate supports) was secured over each wound with adhesive and simple interrupted sutures. For mice receiving mechanotransduction signaling inhibitor, 30 μL of Verteporfin (1 mg/mL) was injected along the suture line both at POD 0 and POD 4; PBS was injected into wounds for vehicle controls. Device tension was increased by distracting expansion 2 mm every 2 days for 10 days total. Mice with unexpanded devices served as sham surgery controls. On POD 14, wounds were harvested and processed for histology to characterize the effects of increased wound tension on activation of ENFs to scarring pEPFs. In FIG. 2, G-I, a minimum of 4 mice was used for each experimental group.
Tissues were fixed in 2% paraformaldehyde for 16 h at 4° C. Samples were prepared for embedding by soaking in 30% sucrose in PBS for 1 week at 4° C. Samples were then removed from the sucrose solution, and tissue blocks were prepared by embedding in Tissue Tek U.C.T. (Sakura Finetek) under dry ice to achieve rapid freezing. Frozen blocks were mounted on a Thermo Scientific CryoStar NX70 cryostat, and 10 μm-thick sections were transferred to SuperfrostfPlus adhesive slides (Fisher). For hematoxylin and eosin staining, standard protocols were used with no modifications. For immunofluorescent staining, slides were blocked for 1 hr with Power Block (Biogenex) prior to addition of the following primary antibodies: Abeam ab34710 (anti-collagen type I), Abeam ab28340 (anti-CD26), Invitrogen MA5-15915 (anti-Dlk1), Abeam ab51317 (anti-Scat), Abeam ab5694 (anti-α-SMA), Santa Cruz Biotechnology sc-101199 (anti-YAP), Abeam ab7800 (anti-CK14), and Abeam ab52625 (anti-CK19). Slides were then incubated for 1 h with Alexa Fluor 568 or Alexa Fluor 647-conjugated anti-rabbit, anti-rat, or anti-mouse antibodies (Invitrogen). Finally, slides were mounted in Fluoromount-G mounting solution with DAPI (Thermo Fisher). Brightfield images were acquired with a Leica DMI4000B microscope, while fluorescent images were acquired with a Leica DM6000 SP5 upright confocal microscope.
Then, whether mechanical tension similarly promoted ENF-to-EPF transition in vivo was assessed. […]

Assay [2] concerns ENFs. The experiment in a line: Bulk RNA-seq of ENFs cultured on TCPS in the presence of Verteporfin. It counts as cell-based, mouse. How it is done: Total RNA was harvested by lysing cells in Trizol reagent (Invitrogen), RNA extraction and library preparation was performed by the Stanford Functional Genomics facility using standard Qiagen kits and protocols. Directional RNA-Sal libraries were analyzed with an Agilent Bioanalyzer to ensure successful library creation, and then sequenced with the Illumina HiSeq 4000 System (2×75 bp, 150 cycles), Paired-end reads were mapped to the mouse genome reference sequence mm10 using the STAR aligner. […] It is common practice to normalize read counts by the total number of reads and the length of each transcript, yielding reads per kilobase mapped (RPKM) values. However, such analysis may be skewed towards a few highly expressed genes that dominate the total lane count. Thus, instead, counts were normalized by a size factor, calculated by taking the median of the ratios of observed counts to those of a pseudo-reference sample (whose counts are the geometric means of each gene across all samples). For hypothesis testing of differential gene transcription, the read counts were modeled according to a negative binomial distribution, with the variance considered as the sum of the shot noise term and a locally regressed non-parametric smooth function of the mean. […] Raw RNA-seq data can be accessed at the following Github repository: https://github.com/[…]. […] Ranked whole genome enrichment analyses in FIGS. 6 and 7 were performed using GSEA software developed by the Broad Institute with nominal p value and false discovery rate (FDR) cutoffs of 0.01 and 0.25, respectively. All g.Profiler and GSEA results are available in the following Github repository: https://github.com/[…]. In order to ascertain whether in vitro En-1 activation involved a shift toward a fibrotic transcriptomic profile, bulk ENFs were isolated from En-1^Cre;R26^mTmG mice and grew these cells on TCPS for 2 days (at which point ENFs remain single cells), 7 days (when ENFs form colonies), or 14 days (when ENFs activate En-1) (experimental schematic in FIG. 3, A). Cultured cells were then subjected to bulk RNA-seq analysis. Next, to assess if postnatal En-1 activation was dependent on mechanotransduction signaling, ENFs cultured on TCPS were grown in the presence of Verteporfin. After 14 days in culture, treated cells were subjected to RNA-seq. […] GO term analysis in g.

Where [3] appears, read: ENFs on TCPS, 14 days with Verteporfin.

With verteporfin, the “Gross appearance of mechanically loaded wounds” value in assay [1] (30 μL of 1 mg/mL injected at POD 0 and POD 4, harvested POD 14) is “grossly resembled control (non-mechanically loaded) wounds”. For the same substance, the “Number of pEPFs (GFP+ cells) in wounds” value in assay [1] (compared to mechanically loaded, non-Verteporfin treated wounds, POD 14) is reported as “significantly fewer pEPFs”. Besides, the “YAP and a-SMA expression (immunofluorescent staining)” value in assay [1] (compared to untreated mechanically loaded wounds, POD 14) is “decreased YAP and a-SMA expression”. In assay [1] (mechanically loaded wounds, POD 14), the “Number of YAP+ cells in wounds” value was “significantly fewer YAP+ cells”. Also, in assay [2] (setting [3]), the “Expression of ECM / pro-fibrotic matrix genes” value is “reduced expression of various ECM genes”; the “GO term enrichment (g.Profiler)” value was “decreased enrichment of ECM-related terms and relatively higher muscle development-related terms”. Besides, the “Transcriptomic shift over time in culture (RNA-seq)” value in assay [2] (ENFs on TCPS, 14 days with Verteporfin, vs untreated cells) is given as “attenuated the transcriptomic shift observed in untreated cells”. In addition, in assay [2] (ENFs on TCPS, 14 days with Verteporfin, listed as Vert), the “Expression of ECM / pro-fibrotic matrix genes” value is listed as “mitigated”. For the same substance, the “Principal component analysis of RNA-seq data” value in assay [2] (ENFs treated with Verteporfin for 14 days) is “more closely resembled untreated cells that had only been in culture for 2 days”.

The values are drawn from US20220313658A1, “YAP Inhibition for Wound Healing” (The Board of Trustees of the Leland Stanford Junior …, priority 2019, published 2022).
